Measurements taken from patent publication US10420824B2, “Induced activation in dendritic cells” (BAYLOR COLLEGE OF MEDICINE, priority 2003, dated 2019).

Key:
[1] = tested on: CD40; assay: Flow cytometry of CD40 on D2SC/1 DC line after CD40L and inhibitors; format: cell-based
Experimental: FIG. 8A-FIG. 8C show CD40L downregulates and reduces the signaling capacity of CD40. FIG. 8A provides two graphs showing endocytosis inhibition reduces CD40 downregulation. D2SC/1 cell lines were incubated with 250 μM cytochalasin B for 1 hour followed by a 30 min CD40L treatment. D2SC/1 cells were also treated with cytochalasin B, the DMSO solvent control, and CD40L alone. K^+-depletion of the D2SC/1 cell line was also carried out prior to CD40 surface staining and flow cytometry analysis. Only viable cells were gated for analysis. FIG. 8B provides flow cytometry analysis showing inhibition of lysosomal degradation enhances intracellular CD40 levels. D2SC/1 cell lines were incubated with 0.5 μM bafilomycin A inhibitor for 1 hour followed by intracellular staining for CD40 (Total CD40). Total CD40 is compared to surface CD40 fluorescence. FIG. 8C is a graph showing inhibition of endocytosis intensifies the CD40 activation signal in DC Lines. Staining and analysis of surface H-2K^d.
To initially investigate the potential downregulation of surface CD40 upon ligand engagement, flow cytometric analysis of DC surface expression of CD40 was monitored in the presence and absence of CD40L.

[2] = tested on: syngeneic lymph node (LN)-derived cells; assay: Mixed lymphocyte reaction, 3H-thymidine T cell proliferation with mitomycin C-treated D2SC/1 DCs; format: cell-based; conditions: purified CD8+ T cells from LN tissue (>95%), no CD4+ help
Experimental: The initial approach to the determination of the T cell stimulation capacity of iCD40 DCs involved the co-incubation of mitomycin C-treated D2SC/1 DCs with syngeneic lymph node (LN)-derived cells in vitro. This mixed lymphocyte reaction (MLR) assay measured the ability of iCD40 DCs to induce a syngeneic T cell proliferative response to bovine serum-derived xenogeneic antigens (FIG. 3C). […] In order to investigate whether this T cell activation effect was dependent on CD4+ T cell help, CD8+ T cells from LN tissue (>95%) were purified and the ^3H-thymidine-based proliferation assay was repeated (FIG. 3C). […] Furthermore, the CD4+-depletion data inferred that the iCD40 receptor may be capable of substituting for CD4+ T cell help in DC-based vaccination strategies.

[3] = tested on: IL-12; assay: Intracellular cytokine staining of IL-12 in BMDCs; format: cell-based, C57BL/6 mice; conditions: decreased thereafter
Source text: A viral region E1 and E3-deleted, replication-deficient type 5 adenoviral vector was engineered to express both iCD40 and EGFP under the control of the CMV early/immediate promoter/enhancer. Ad-iCD40-GFP successfully transduced and expressed the iCD40 transgene, as well as the EGFP marker, in purified BMDCs (FIG. 5A,B). […] The effects of Ad-iCD40-GFP on BMDCs were studied by using intracellular cytokine staining to evaluate DC expression of the TH1-polarizing cytokine, IL-12. The results confirmed numerous previous reports that an empty adenoviral vector can contribute to background fluorescence readings by stimulating the production of low levels of this cytokine (FIG. 5D) (Korst 2002).

[4] = tested on: RelB; assay: Nuclear translocation of RelB by western blot of nuclear lysates of iCD40 D2SC/1 DCs, with pulse-chase; format: cell-based; conditions: pulse-chase experiments
Source text: FIG. 2A-FIG. 2F show inducible CD40 initiates a potent NFkB signal in DCs. FIG. 2A is a photograph of an anti-HA Western Blot Analysis of iCD40 D2SC/1 DC Clones. FIG. 2B is a photograph of anti-HA Immunofluorescence of D2SC/1.Hi (lt) and D2SC/1 (rt) FIG. 2C is a graph of results of an NFκB-SEAP Reporter Assay. FIG. 2D is a graph of results and a photograph that show induction of RelB and Sp1 in D2SC/1.Hi by AP20187. FIG. 2E is a graph of results and a photograph of results of assays where maximum concentrations of each agent (based on titrations) were co-incubated with iCD40 D2SC/1 for 24 hrs and nuclear lysates were analyzed by western blot.
Reporter assays were carried out in these cell lines to determine whether iCD40 could also induce NFκB activation in DCs. […] Several studies have identified that the RelB subunit of NFκB plays a significant role in the DC maturation program (Pettit 1997; Martin 2003). […] Therefore, as a surrogate marker for DC activation, the nuclear translocation of RelB was analyzed by western blot in iCD40 DCs exposed to log dilutions of AP20187 (FIG. 2D).
DC activation potency of iCD40 was compared with other traditional DC maturation stimuli, such as LPS, TNFα, anti-CD40 mAb, and CD40L. […]

[5] = tested on: iCD40-IICD40 DC lines; assay: iCD40-IICD40 double-stable D2SC/1 DC lines, western blot and H-2K^d surface expression; format: cell-based; conditions: IICD40-expressing lines vs empty vector control
Source text: FIG. 9A-FIG. 9D show iCD40 circumvents negative feedback inhibition by the Type II CD40 (IICD40) isoform. FIG. 9A is a schematic of Type I, II, and iCD40. […] The type II CD40 isoform was rt-PCR amplified from purified BMDCs, subcloned into a pEF-1α-driven myc-tagged ZeoR vector, and transfected into iCD40-expressing D2SC/1 cells. Double clonal stable lines were generated by G418/zeocin selection and limiting dilution. Resulting lines were screened for IICD40 expression by anti-myc western blot and analyzed for iCD40 expression by anti-HA western blots. FIG. 9C is a graph showing that Type II CD40 down-regulates surface expression of Type I CD40 in DC Lines. Empty vector control and IICD40-expressing D2SC/1 lines were analyzed for their surface expression of CD40 by flow cytometry. Only viable cells were gated for analysis. FIG. 9D provides two graphs showing the Type II CD40 isoform downmodulates Type I CD40 signaling, but not iCD40 signaling. iCD40-IICD40-expressing D2SC/1 cell lines were cultured in the presence of increasing concentrations of CD40L and the AP20187 drug followed by surface staining and flow analysis of H-2K^d. […]
To expand upon these findings, the effects of CD40L and AP20187 titrations on each of the IICD40 lines were analyzed based on the hypothesis that IICD40-mediated type I CD40 downregulation should blunt the DC response to CD40L but not to AP20187 (FIG. 9D).

balifomycin A1
total CD40 levels (intracellular staining) ([1]; endosomal H^+ATPase inhibitor): enhanced total CD40 levels

C=C1[C@@H](C)[C@H]2[C@H](Cc3ccccc3)NC(=O)[C@]23OC(=O)/C=C/[C@H](O)CCC[C@@H](C)C/C=C/[C@H]3[C@@H]1O [cytocholasin B]
sensitivity of CD40L-induced CD40 downregulation to inhibitor ([1]; endocytosis inhibitor): sensitive

lipopolysaccharide [LPS]
CD8+ T cell proliferation [2]: failed to circumvent the requirement for CD4+ T cell-derived helper signals | time of peak IL-12p70/p40 synthesis [3]: 8 h

TNFα
duration of RelB induction [4]: 24 h

B1: CD40L: CD40 ligand (protein)
chain: MIETYNQTSPRSAATGLPISMKIFMYLLTVFLITQMIGSALFAVYLHRRLDKIEDERNLHEDFVFMKTIQRCNTGERSLSLLNCEEIKSQFEGFVKDIMLNKEETKKENSFEMQKGDQNPQIAAHVISEASSKTTSVLQWAEKGYYTMSNNLVTLENGKQLTVKRQGLYYIYAQVTFCSNREASSQAPFIASLCLKSPGRFERILLRAANTHSSAKPCGQQSIHLGGVFELQPGASVFVNVTDPSQVSHGTGFTSFGLLKL
surface CD40 mean fluorescence intensity ([1]; D2SC/1 DC line, rapid kinetics): promptly reduced the mean fluorescence intensity of CD40 | MHC class I H-2K^d surface expression dose-response [5]: elevated amounts of CD40L were required to initiate signaling through the CD40 axis | time of peak IL-12p70/p40 synthesis [3]: 8 h
